Experimental data: US20080175880A1, “Pyridoxal-5-Phosphate And Stent For The Treatment And Prevention Of Atherosclerosis And Restenosis” (MEIDCURE INTERNATIONAL INC., priority 2004, published 2008)

Assays:
HEK 293 P2X7 cells = assay: ATP/BzATP induced apoptosis, Cell Death Detection ELISA; assay type: cell-based, human; details: for induction of cell apoptosis: P2X7 expressing cells
Method: Cell Lines—HEK 293 cell line (human), is stabily transfected with the P2X7 receptor [9] to produce HEK 293 P2X7 cells.
(§1) Apoptosis—HEK-293 P2X7 (human) cells are treated with ATP and/or BzATP to induce apoptosis (Wen et al., 2003). The level of apoptosis is determined using a Cell Death Detection ELISA, which is based on DNA laddering. Various doses of P5P are added to the cells to determine its ability to inhibit ATP induced apoptosis. OxATP (Murgia et al., 1993), PPADS (Chessell I P et al., 1998) and/or KN-62 (Humphreys B D et al., 1998) are used as positive controls.

wild type HEK 293 cells = assay: ATP/BzATP induced apoptosis in wild type control cells; assay type: cell-based, human; details: wild type cells without P2X7
Method: as §1
Control—All the experiments are carried out in wild type HEK 293 cells as a control.

LPS primed THP-1 cells = assay: ATP induced IL-1β secretion, ELISA; assay type: cell-based; details: for inhibition of IL-1β secretion: LPS primed THP-1 cells treated with ATP
Method: LPS primed THP-1 cells are treated with ATP to induced IL-1β secretion (Grahames C B A et-al (1999) Br J Pharm 127:1915-1921). IL-1β secretion levels are determined by ELISA. Various doses of P5P are added to the cells to determine its ability to Inhibit the ATP induced IL-1β secretion. OxATP (Grahames et al., 1999), PPADS (Grahames et al., 1999), and/or KN-62 (Grahames et al., 1999) are used as positive controls.

[1] = Rabbit aortic balloon-injury model; assay type: in vivo; details: 10 mg/kg daily by gavage
Method: Rabbit Aortic Balloon-Injury Model—Forty male New Zealand White rabbits (2.5-3.0 kg) are used. Rabbits are fed regular rabbit chow (control, 20 rabbits) or a 1% cholesterol diet (treated, 20 rabbits) for 8 weeks. Half of each group receives 10 mg/kg P5P (provided by CanAm Bioresearch Inc.) daily by gavage, with the other half receiving saline by gavage. After 4 weeks, a 3F Fogarty embolectomy catheter (Baxter) is inserted into the right femoral artery of each rabbit, advanced 25 cm proximally, and then withdrawn to the origin with the balloon inflated to 0.2 mL saline, a step repeated twice (Lau et al., Probucol promotes functional reendothelialization in balloon-injured rabbit aortas. Circulation 2003; 107(15):2031-6). At 8 weeks, the right and left femoral arteries are harvested from each animal (left femoral arteries serve as uninjured controls). Segments for histology are pressure-perfused with formalin, stored in. 70% (vol/vol) ethanol, and then embedded in paraffin.
Histology—One 5 μm thick cross-section is taken from each of 6 segments of the femoral aorta and stained with hematoxylin and eosin. Morphometric analysis of the 6 arterial cross-sections per animal is performed using Imagespace software (Molecular Dynamics). The intimal and medial areas of each arterial cross-section specimen is measured, and the average intimal/medial area ratio is determined for each group.
Inflammatory Markers, Lipid Profile, and Homocysteine Levels—At the beginning and end of the study, and every 2 weeks throughout, blood samples are collected through a catheter inserted in the ear artery of conscious rabbits. Plasma interleukin-6 (IL-6) levels are measured with quantitative sandwich enzyme immunoassay employing commercial kits for rats (R&D Systems) (Oubina et al., Synergistic effect of angiotensin-converting enzyme (ACE) and 3-hydroxy-3-methylglutaryl-CoA (HMG-CoA) reductase inhibition on inflammatory markers in atherosclerotic rabbits. Clin Sci (Lond). 2003; 105(6):655-62). CRP plasma levels are measured with an immunoassay kit for rabbits (Alpco Diagnostics). Plasma cholesterol levels are measured using colorimetric reactions employing commercial kits (Roche Diagnostics). Homocysteine levels are determined by high performance liquid chromatography, as previously described (Zhloba and Blashko, Liquid chromatographic determination of total homocysteine in blood plasma with photometric detection. J Chromatogr B Analyt Technol Biomed Life Sci. 2004; 800(1-2):275-80).
Evaluation of Endothelial Function by Ultrasound—Ultrasound evaluation of endothelial function of the femoral aorta is performed at the beginning and end of the study, and every 2 weeks throughout (Drolet et al., Early endothelial dysfunction in cholesterol-fed rabbits: a non-invasive in vivo ultrasound study. Cardiovasc Ultrasound. 2004; 2(1):10). Rabbits are sedated using midazolam (0.5 mg/kg), butorphanol (0.5 mg/kg) and ketamine (30 mg/kg) IM. Marginal ear vein and artery are cannulated for drug infusions and arterial blood pressure monitoring, respectively. Heart rate is monitored continuously throughout the procedure. […]
Once the imaging of the aorta is optimal, the animals receive the following drug perfusions I.V. sequentially for 2 minutes each: 1) saline at 1 ml/min; 2) acetylcholine (Ach) at 0.05 μg/ml/min and Ach at 0.5 μg/ml/min. […] Images of the femoral aorta are recorded continuously through the entire procedure on standard S-VHS videotape for off-line analysis. […]

[2] = Double-blind placebo-controlled trial in PCI (angioplasty) patients; assay type: in vivo, human
Method: Study Design and Population—The study is a multicenter, double-blind, placebo-controlled, randomized trial. The protocol is approved by institutional review boards prior to commencement. Patients referred for elective percutaneous coronary interventional (PCI) are evaluated 14 days before their scheduled procedures. Eligible patients are asked to provide written informed consent and undergo medical history, physical examination, electrocardiography, hematology, and clinical biochemistry. Patients are eligible if they are scheduled to undergo PCI with or without stenting on one native coronary artery and have one de novo target lesion with luminal narrowing 50%. Subjects who have severe liver disease or serum creatinine 200 μmol/L; myocardial infarction within the past 7 days; left main stenosis >50%; ejection fraction <30%; have had PCI for another lesion in the preceding 6 months; are being treated for a restenotic lesion; or have scheduled atherectomy, brachytherapy, or PCI of a bypass graft before randomization are excluded. A total of 120 patients are enrolled, with 60 randomized to receive P5P and 60 to receive placebo.
The primary endpoint is clinical restenosis requiring target lesion revascularization at six months. The secondary end points are major adverse cardiac events (MACE) including death, myocardial infarction and revascularization.
Randomization and Drug Regimen—Patients are randomly assigned to receive P5P (provided by CanAm Bioresearch Inc.) 750 mg once day or placebo beginning 14 days before scheduled PCI. P5P or matched placebo is administered as 3 tablets given once daily. All patients will also receive an extra dose of P5P or matched placebos on the evening before PCI, according to random treatment assignment. After PCI, all patients are maintained on their assigned study regimen for 4 additional weeks.
PCI and Follow-Up Evaluation—PCI with or without stent placement and post-PCI management will be performed according to current clinical practice. ECGs are obtained before PCI, immediately thereafter, and the morning after PCI. Creatine kinase, creatine kinase-MB fraction, and troponin I are measured on the evening after PCI and the following morning. Patients are discharged after PCI with 4 weeks of the study medication. Aspirin 325 mg/d is given from the time of recruitment and for the entire study duration. All-patients treated with stents also receive clopidogrel 75 mg/d for 30 days after PCI. Patients will return at 1 Month, 3 months and 6 months for clinical evaluation and drug accountability. Patients are assessed for ischemic symptoms and adverse events, whether or not they were related to the study medication or PCI procedure. Blood chemistry values assessed at baseline are measured again at PCI discharge and at follow-up visits. Patients are readmitted for follow-up catheterization and IVUS 5 to 7 months after PCI. […]
IVUS Examinations and Measurements—IVUS examinations are performed with 30-MHz, 3.2 F ultrasound catheters (Tardif et al., Canadian Antioxidant Restenosis Trial (CART-1) Investigators. Effects of AGI-1067 and probucol after percutaneous coronary interventions. Circulation. 2003; 107(4):552-8). IVUS studies are recorded before, PCI whenever possible and are always performed after PCI (after final balloon inflation) and at follow-up (before any subsequent intervention). […] The preintervention, post-PCI, and follow-up studies are analyzed side by side. […]

[3] = test system: hepatic cytochrome enzymes; assay: Inhibition of hepatic cytochrome enzymes; assay type: in vitro ADME
[4] = Tolerability and toxicity in animal and human studies; assay type: in vivo
[5] = test system: freshly isolated adult rat cardiomyocytes; details: previous finding of the inventors (refs 89, 93); cited from earlier work
[6] = test system: isolated perfused rat hearts; details: previous finding of the inventors (refs 89, 90); cited from earlier work
human platelet = details: cited from earlier work
[7] = cited from earlier work
[8] = 750 mg once a day from 14 days before to 4 weeks after PCI

Molecule: Nc1ncnc2c1ncn2[C@@H]1O[C@H](COP(=O)(O)OP(=O)(O)OP(=O)(O)O)[C@@H](O)[C@H]1O [ATP, adenosine triphosphate]
- induction of cell apoptosis (HEK 293 P2X7 cells): induce
- induction of cell apoptosis (wild type HEK 293 cells): do not induce
- induction of IL-1β secretion (LPS primed THP-1 cells; LPS primed THP-1 cells): induces

Molecule: CN([C@@H](Cc1ccc(OS(=O)(=O)c2cccc3cnccc23)cc1)C(=O)N1CCN(c2ccccc2)CC1)S(=O)(=O)c1cccc2cnccc12 [KN-62]
- inhibition of IL-1β secretion (LPS primed THP-1 cells): inhibits

Molecule: Nc1ncnc2c1ncn2[C@@H](C=O)O[C@@H](C=O)COP(=O)(O)OP(=O)(O)OP(=O)(O)O [OxATP]
- inhibition of IL-1β secretion (LPS primed THP-1 cells): inhibits

Molecule: Cc1ncc(COP(=O)(O)O)c(C=O)c1O [P5P, Pyridoxal-5′-phosphate]
- inhibition of ATP mediated cell apoptosis (HEK 293 P2X7 cells; P2X7 expressing HEK 293 cells, vs untreated cells): inhibits
- inhibition of IL-1β secretion (LPS primed THP-1 cells): inhibits
- CRP levels ([1]; 8 weeks): lowered
- homocysteine levels ([1]; 8 weeks): lowered
- lipid profile ([1]; 8 weeks): improved
- incidence of restenosis ([1]; balloon injury): decreased incidence
- endothelial function ([1]; ultrasound): improved
- CRP levels [2, 8]: lowered
- homocysteine levels [2, 8]: lowered
- incidence of restenosis following PCI [2, 8]: decreased incidence
- lipid profile [2, 8]: improved
- endothelial function ([2]; 750 mg once a day, brachial artery ultrasound): improved
- inhibition of hepatic cytochrome enzymes [3]: does not inhibit
- tolerability [4]: easily tolerated
- toxicity [4]: low toxicity
- inhibition of ATP induced calcium influx [5]: inhibits
- inhibition of positive inotropic effects of ATP [6]: inhibits
- inhibition of prostaglandin E1 and theophylline-induced platelet aggregation (human platelet; in vitro (ref 123)): inhibit
- inhibition of platelet aggregation and 14C-5HT release (human platelet; induced by ADP, thrombin, adrenaline, platelet activating factor, arachidonic acid, in vitro (ref 122)): inhibit
- inhibition of thromboxane B2 generation (human platelet; induced by all of these agents except arachidonic acid (ref 122)): inhibited

Molecule: Cc1nc(N=Nc2ccc(S(=O)(=O)O)cc2S(=O)(=O)O)c(COP(=O)(O)O)c(C=O)c1O [PPADS]
- inhibition of IL-1β secretion (LPS primed THP-1 cells): inhibits

Molecule: Cc1ncc(CO)c(CO)c1O [pyridoxine]
- plasma antithrombin III (AT III) activity ([7]; atherosclerotic patients (ref 16)): significantly increased
- AT III activity ([7]; patients with genetic homocysteinuria (ref 125)): increase
- bleeding time ([7]; patients, 100 mg twice daily for 15 days (ref 124)): significantly prolonged
- platelet aggregation induced with ADP or epinephrine ([7]; plasma from patients, 100 mg twice daily for 15 days (ref 124)): significantly inhibited

Molecule: BzATP
- induction of cell apoptosis (HEK 293 P2X7 cells): induce
- induction of cell apoptosis (wild type HEK 293 cells): do not induce
